In a melting point compilation (Tetko et al.; mined from patent text by program, amines drawn as free bases though some values may be those of a salt):

Row | Compound | melting point [°C]
1 | CCc1cccc(C)c1S(=O)(=O)c1nn(C(=O)N(CC)CC)cc1Cl | 68 to 72
2 | CC1(C)CN(CC(=O)c2ccccc2)c2cc([N+](=O)[O-])ccc2O1 | 125 to 128
3 | O=NN(CCCl)C(=O)NCc1ccccn1 | 70
4 | CCCCCC(=O)OCC(=O)C1C(C)CC2C3=C(C(O)CC21C)C1(C)C=CC(=O)C=C1C(F)C3 (stereo not given) | 155
5 | O=c1n(Cc2ccccc2)c2cc(Cl)ccc2n1C1CCNCC1 | 128
6 | O=C(NC1C(=O)N(CC23CC4CC(CC(C4)C2)C3)c2ccc(F)cc2N(c2ccccc2)C1=O)Oc1ccccc1 (stereo not given) | 156 to 159
7 | CCCCc1nc2c(N)nc3cccnc3c2n1CCNC(=O)OC(C)(C)C | 118 to 120
8 | Cc1c(CN2CCOCC2)sc2c(Br)c3ccccc3c(-c3cc(Br)c(O)c(Br)c3)c12 | 237 to 240
9 | CC(C)(C)c1ccc(CC[C@@H](N)[C@H](O)c2ccc(F)cc2)cc1 (racemic) | 139 to 140
10 | COc1ccc(C2CCCC(=O)O2)cc1 (stereo not given) | 57.5 to 59.5
11 | Cc1nc(C(C)(O)c2ccsc2)sc1CCO (stereo not given) | 127 to 129
12 | CC(=NCc1ccc(Cl)cc1Cl)c1ccc(OCC(O)(Cn2cncn2)C(C)(C)C)cc1 (stereo not given) | 101
13 | Cn1c(=O)c2c(Cl)cccc2n2cnc(C(=O)n3ccnc3)c12 | 242 to 243
14 | O=C(O)c1cc([N+](=O)[O-])cs1 | 110 to 118
15 | Cn1nc(-c2ccccc2C=O)c2ccccc21 | 106
16 | CCCCn1c(=O)c2c(ncn2S(=O)(=O)c2c(C)cc(C)cc2C)n(CCCC)c1=O | 125 to 127
17 | CC(C)C(c1cncnc1C(F)(F)F)N(C)C(=O)Cc1ccccc1 (stereo not given) | 106 to 109
18 | O=C(c1cc(C(F)(F)F)cc(C(F)(F)F)c1)N1CCN(C(=O)CN2CCC(O)(c3ccccc3)CC2)C(c2ccccc2)C1 (racemic) | 101 to 102
19 | O=C(O)CCCc1cc2cc(Cl)ccc2n1S(=O)(=O)c1ccc2c(c1)CNCC2 | > 250
20 | CCCCCCc1ccc(OCCCCCC(=O)Nc2ccc(O)cc2)cc1O | 128
21 | CCN(Cc1cc(Cl)ccc1OCC1CC1)c1ccc(C(=O)O)nn1 | 119 to 120
22 | O=C(O)c1cccc(CO[N+](=O)[O-])c1 | 123 to 125
23 | O=C(O)C=Cc1ccc2cc[nH]c2c1 | 215 to 217
24 | CCCCCCCCCCCCOCC(CO)(CO)COCCCCCCCCCCCC | 54 to 55
25 | CNC(=O)C1(c2ccc([N+](=O)[O-])cc2)C2C=CC(C2)C1C(N)=O (stereo not given) | 164 to 166

Row | Compound | melting point [°C]
26 | COC(=O)c1cc(Cl)c(N)c2c1OCC2 | 135
27 | CCOC(=O)C(=O)c1cn(CCNC(=O)OC(C)(C)C)c2ccccc12 | 114 to 115
28 | CCOC(=O)C1=C(C)NC(=S)N(C(=O)OCC)C1c1ccccc1C (stereo not given) | 112 to 114
29 | Cc1sc2c(c1C)C(c1ccc(Cl)cc1)=NC(CC(=O)Nc1ccncc1)c1nnc(C)n1-2 (stereo not given) | 237 to 239
30 | CC(C)NC(=O)c1cnc(N2CCC(n3c(=O)oc4ccccc43)CC2)c(Cl)c1 | 162 to 168
31 | CC(=O)OC1CSC(Oc2ccc(-c3cccnc3)nc2Cl)C(OC(C)=O)C1OC(C)=O (stereo not given) | 155
32 | CCOC(=O)C1(Cc2ccc(OC)cc2)CCCC1 | 63.5 to 64.5
33 | Cc1nc(-c2ccccc2)nc(-c2ccncc2)c1C | 152 to 153
34 | CCOC(=O)C(=NNc1ccccc1)C(C)=O | 75 to 76
35 | CN1CC(CN2C(=O)c3ccccc3C2=O)CC2c3cc(C(C)(C)C)cc4[nH]cc(c34)CC21 (stereo not given) | 132 to 137
36 | CC(C)N(CCC(c1ccccc1)c1cc(Br)ccc1OCc1ccccc1)C(C)C (stereo not given) | 52 to 56
37 | Cc1ccc(-c2nnc(N3CCC(OC(=O)Oc4ccccc4)CC3)nc2-c2ccc(C)cc2)cc1 | 142 to 143
38 | OCCCCCc1ccc2ccccc2c1O | 43 to 46
39 | O=C(NNS(=O)(=O)c1ccccc1)c1ccc2c(c1)CCO2 | 181 to 183
40 | Cc1c(-c2ccc(O)c(F)c2)sc(C=O)c1-c1ccc(O)c(Cl)c1 | 252 to 254
41 | CCOC(=O)Nc1cccc2c1CN(C)CC2c1ccccc1 (stereo not given) | 174
42 | CCc1c(C)[nH]c(=O)c(I)c1Oc1cc(C)cc(C)c1 | 240
43 | O=C1CSc2cc(-c3cccc([N+](=O)[O-])c3)ccc2N1 | 290 to 292
44 | CN(C)Cc1c(-c2ccc(O)cc2)[nH]c2ncnc(Nc3cccc(Cl)c3)c12 | 269 to 271
45 | COc1cc2c(O)c(C(=O)O)cnc2cc1F | 275
46 | CN(C1CCC(=O)CC1)S(=O)(=O)c1ccc(Nc2nccc(Nc3ccc(F)cc3)n2)cc1 | 203
47 | COc1ccc(Oc2cccc(C3C4=C(CC(C)(C)CC4=O)NC4=C3C(=O)CC(C)(C)C4)c2)cc1 | 210 to 212
48 | CCC#CCOc1cc(/C=C/C(=O)Nc2ccccc2C(=O)O)ccc1OC | 124 to 125
49 | COc1cc(-n2c(=O)cc(C(F)(F)F)n(C)c2=O)c(F)cc1Br | 154
50 | CCOC(=O)C1=C(N)NC2=C(C(=O)CCC2)C1C (stereo not given) | 236

Row | Compound | melting point [°C]
51 | CC(C)(C)OC(=O)N1CCC(COc2ccc(C=O)cc2)CC1 | 116 to 117
52 | CCCCCCc1ccc(CCCCC(N)(CO)CO)cc1 | 99 to 102
53 | O=C(O)CCCC=Cc1nn(-c2ccc(F)cc2)c2c1CCC2 | 90 to 91
54 | O=C(Cc1c(-c2ccccc2)c2cc(CSc3ccccn3)c(Cl)cc2oc1=O)Nc1ccc(F)cc1C(F)(F)F | 195 to 196
55 | CC(=O)Nc1ccc(S(=O)(=O)CCCl)cc1 | 188
56 | CC(C)(C)C(=O)NNc1ccc([N+](=O)[O-])cc1Cl | 123
57 | CC(C)(C(=O)O)c1cc(C(F)(F)F)cc(C(F)(F)F)c1 | 106 to 107
58 | Cc1ccc(Cl)c2nc3cccc(C(=O)O)c3nc12 | 255 to 257
59 | CCOC(=O)NNc1nc2ccc(-n3ccnc3)cc2n(OCc2ccccc2)c1=O | 197 to 199
60 | CS(=O)(=O)Nc1cc2c(cc1Oc1ccccc1)C(=O)C(Br)(Br)CO2 | 169 to 170
61 | COc1cn(-c2ccc(N3CCC3=O)cc2F)nc(-c2ccnn2-c2ccccc2)c1=O | 189 to 194
62 | Clc1ccc(-c2nc(CCCCCCc3nnn[nH]3)oc2-c2ccc(Cl)cc2)cc1 | 148
63 | C[C@]12CCC(=O)N[C@@H]1CCc1cc(Sc3ccccn3)ccc12 | 223 to 225
64 | N=C(N)NCCc1ccc(OCCC2Oc3ccccc3N(Cc3cccc(OCc4ccccc4)c3)C2=O)cc1 (stereo not given) | 100 to 105
65 | CC1(C)CC(OC(=O)c2ccccc2)CC(C)(C)N1OP(=O)(c1ccccc1)c1ccccc1 | 169 to 173
66 | Cc1nsc(N(C)C(=O)C2CCCCC2)n1 | 96
67 | CC(C)c1nn(-c2ccc(Cl)cn2)cc1CCCOc1ccccc1CC(=O)O | 141 to 142
68 | O=CNNC(C(=O)O)c1ccccc1 (stereo not given) | 137
69 | CC(=O)Nc1cccn(CC(=O)NC(C(=O)C(F)(F)F)C(C)C)c1=O (stereo not given) | 76 to 80
70 | Nc1nc2ccc3cc(Br)c([N+](=O)[O-])cc3c2c(=O)[nH]1 | > 250
71 | Cc1cnc2c(c1)C(O)C(Cc1ccc(C#N)cc1)CC2 (stereo not given) | 174 to 175
72 | C=CCc1c(O)c(Cl)cc(F)c1N1C(=O)c2ccccc2C1=O | 134 to 136
73 | CS(=O)(=O)NCCCNC(=O)c1cccc(-c2cccc3oc(Cc4cccc(C(F)(F)F)c4)cc23)c1 | 79 to 80
74 | Cc1cc(C)c(C#N)c(SSc2ccc([N+](=O)[O-])cc2C(Cl)(Cl)Cl)n1 | 132
75 | C=C(C1=C(CCC(=O)OC)C(=O)CC1OCc1ccc(Cl)cc1)c1ccccc1 (stereo not given) | 114 to 115

Row | Compound | melting point [°C]
76 | Cc1ncc2c(c1-c1nnn[nH]1)COc1ccccc1C2=O | 180 to 182
77 | CN1Cc2c(C#N)ncn2-c2ccccc2C1=O | 184 to 186
78 | CC(=O)Nc1ccc2c(c1)C(=O)CC2 | 176 to 180
79 | COC(=O)Nc1nc(C(=O)C(=O)OC)ns1 | 112 to 117
80 | CCCCC(CC)C(=O)Nc1ccc2c(/C=C/C(=O)O)cn(Cc3ccc(C(=O)NS(=O)(=O)c4ccccc4)cc3OC)c2c1 (stereo not given) | 200 to 201
81 | COc1cc(N)c(Cl)cc1C(=O)NN1CCN(Cc2ccsc2)CC1 | 223 to 224
82 | Cc1cc(CCC2CCC(COc3ccc(C4=NCCO4)cc3)CC2)on1 (stereo not given) | 48 to 50
83 | CCCCCCCCCCCCC#CCO | 36 to 37
84 | NCC(CC(=O)O)c1ccc(Cl)c(Cl)c1 (stereo not given) | 202 to 204
85 | CCCCCCCCCCCCCCCCOc1ccc(-c2nc(CC(=O)O)c(OCC)o2)cc1 | 89 to 91
86 | CNCC(=O)N1CC(c2ccc(Cl)cc2)Sc2ccccc21 (stereo not given) | 139 to 140
87 | Cc1ccc(OCCC(CCl)NC(=O)c2c(F)cccc2F)cc1 (stereo not given) | 97 to 99
88 | O=C(O)c1ccccc1C(=O)N1CC2CCC(C1)O2 | 149 to 150
89 | COc1cccc(/C(=C/C=C/C(=O)Oc2ccc([N+](=O)[O-])cc2)c2ccccc2)c1 | 101 to 103
90 | O=C(Nc1cc(F)cc2c(Cl)ccnc12)c1c(Cl)cccc1Cl | 200 to 213
91 | O=C(O)c1ccc(C(=O)O)c(-c2nc3ccccc3[nH]2)c1 | 312 to 314
92 | CCCCc1oc2ccccc2c1-c1ncc(-c2ccc3cc(OCc4nnn[nH]4)ccc3c2)o1 | 238 to 240
93 | O=C(Oc1ccccc1)N1C(C2=COc3ccccc3O2)=COc2cccnc21 | 142
94 | CCOC(=O)c1nc(CCl)n(-c2ccc(Br)cc2C(=O)c2ccccn2)n1 | 96 to 97
95 | CC(C)NC(=S)N1CCc2[nH]cnc2C1C(C)C (stereo not given) | 203
96 | CC(C)NCCOc1ccc(-c2nc3ccccc3c(=O)[nH]2)nc1-c1ccc(S(C)(=O)=O)cc1 | 188 to 189
97 | CC1(C)OC(CCN)CC(CC(=O)O)O1 (stereo not given) | 165
98 | CCOC(=O)C(=O)Nc1nc2ncn(C)c(=S)n2n1 | 280 to 282
99 | CCCc1c(OCc2ccc(C(=O)O)cc2)ccc(C(C)=O)c1O | 188
100 | COCCNS(=O)(=O)c1cc2[nH]c(=O)c(=O)[nH]c2cc1[N+](=O)[O-] | 320 to 321
